Experimental data taken from patent US8273771B2, “Ischemic disorder or disease inhibitors” (Pronas Pharma AB, priority 2007, dated 2012).

Experiments:
rats with induced SAH = assay: Neurological scoring in rat subarachnoid hemorrhage model; type: in vivo; conditions: established scoring system, SAH+vehicle score 1, sham score 0
Text: Subarachnoid hemorrhage was induced by a model originally devised by Svendgaard et al and carefully described by Prunell et al (2003). Male Sprague-Dawley rats (350-400 g) were anaesthetized using 5% halothane (Halocarbon Laboratories, River Edge, N.J.) in N2O/O2 (30:70). The rat was intubated and artificially ventilated with inhalation of 0.5-1.5% halothane in N2O/O2 (70:30) during the surgical procedure. The depth of anaesthesia was carefully monitored and the respiration checked by regularly withdrawing arterial blood samples for blood gas analysis (Radiometer, Copenhagen, Denmark). An electric temperature probe was inserted into the rectum of the rat to record the temperature, which was maintained at 37° C. An arterial catheter to measure blood pressure was placed in the tail artery and a catheter to monitor intracranial pressure (ICP) was placed in the subarachnoid space under the subocciptal membrane. At either side of the skull, 3 mm from the midline and 4 mm anteriorly from the bregma, holes were drilled through the skull bone down to dura mater (without perforation) allowing the placement of two laser-Doppler flow probes to measure cortical CBF. […]
During the period, the rat was monitored regularly, and if showing severe distress the animal was prematurely killed. […]

MCA and BA from SAH rats = assay: Myograph contractile response to ET-1 in cerebral arteries of treated SAH rats; design: species or system rat; conditions: in vivo treated SAH rats compared to SAH rats, no significant difference to sham
Method: After 48 hours of observation sham, SAH treated with SB386023-b or treated with the PKC inhibitor RO-31-7549 or U0126 or SAH+vehicle operated rats (see above SAH model) were anaesthetized with CO2 and decapitated. The brains were quickly removed and chilled in ice-cold bicarbonate buffer solution (see composition below). Under a dissection microscope, the middle cerebral artery (MCA), the basilar artery (BA) and circle of Willis were carefully dissected free from the brain and cleared of connective tissue. The MCA and BA were immediately mounted in myographs for in vitro pharmacology or snap frozen at −80° C. and examined by real-time PCR.
In vitro Pharmacology Myograph Experiments For contractile experiments a sensitive myograph was used for recording the isometric tension in isolated cerebral arteries (Hogestatt et al., (1983, Mulvany and Helpern, 1977). The vessels were cut into 1 mm long cylindrical segments and mounted on two 40 μm in diameter stainless steel wires in a Myograph (Danish Myo Technology A/S, Denmark). One wire was connected to a force displacement transducer attached to an analog-digital converter unit (ADInstruments, Oxford, UK). The other wire was connected to a micrometer screw, allowing fine adjustments of vascular tone by varying the distance between the wires. Measurements were recorded on a computer by use of a PowerLab unit (ADInstruments). […]

AT2 receptor mRNA = assay: Real-time PCR of receptor mRNA in cerebral arteries after SAH; type: in vivo, rat; conditions: MCA, BA and circle of Willis grouped

Compound	neurological score (rats with induced SAH)	ET-1 induced contractile response (MCA and BA from SAH rats)	expression of AT2 receptor mRNA, difference between sham, SAH and treated SAH (AT2 receptor mRNA)
Cn1cc(C2=C(c3cn(CCCN)c4ccccc34)C(=O)NC2=O)c2ccccc21 [RO-31-7549]	0	significantly attenuated	
Oc1cc(-c2nc(-c3ccccc3)[nH]c2-c2ccncc2)ccc1Cl [SB386023-b]	0	significantly attenuated	no difference
